Results as given in patent publication US9296631B2, “Preparation of environmentally acceptable scale inhibitors” (Ecolab USA Inc., priority 2008, dated 2016).

What was measured:
[1] = OECD 306 biodegradation test, closed bottle method; details: percent of measured COD, no substrate, acidic, non-neutralized form; for BIODEGRADATION by OECD 306 Max, 28 d (%): 28 days; for BIODEGRADATION by OECD 306 Max, 63 d (%): 63 days
Method: Full details of the procedure and methods of calculation are publicly available in OECD documents. In all cases, the tests were performed without a substrate and the percent biodegradation was determined as a percentage of the measured chemical oxygen demand (COD).
Each of the datasets presented in Table 1 and FIGS. 2 through 5 were obtained on the products as described in their acidic, non-neutralized forms.

[2] = Scale inhibitor performance, dynamic loop method; details: Field I brine, 128 C, pH 7.7, 10 mL/min; hold time 1 hour
From the text: A number of scale inhibitor performance tests were undertaken using the dynamic loop method. This method is widely used in the oilfield service industry and is designed to evaluate the ability of a candidate scale inhibitor to delay the blockage of a small diameter metal capillary when injected with a scaling brine at constant flow rate under selected test conditions. The test conditions and water compositions are generally selected to represent, at least in-part, the process conditions under which a scale inhibitor might be deployed. The flow rate of the test brine is generally selected to allow the experiment to be performed in a repeatable and controlled manner. […]
Typically, one or more tests without any added scale inhibitor (blank tests) were performed in order to determine the scaling time for the un-inhibited brine under the given test conditions. […] The deposition of scale was monitored by measuring the differential pressure (ΔP) developed across the test capillary over time. […] Alternatively, the concentration of the scale inhibitor can be reduced step-wise and the minimum inhibitor concentration (MIC) required for preventing a given increase in ΔP over a given time period can be determined. […]
To prepare the test water, each water composition was divided into two parts. […] The pH of the individual waters was also measured and adjusted. […]

Row | Molecule | BIODEGRADATION by OECD 306 Max, 28 d (%) [1] [%] | BIODEGRADATION by OECD 306 Max, 28 d (%) ([1]; listed as Phosphonate 1) | MIC Field I (ppm) [2] | BIODEGRADATION by OECD 306 Max, 63 d (%) [1] [%]
1 | O=P(O)(O)CN(CCCCCCN(CP(=O)(O)O)CP(=O)(O)O)CCCCCCN(CP(=O)(O)O)CP(=O)(O)O [BHMTPA, bis(hexamethylene) triamine penta(methylene phosphonic acid)] | 6 | – | – | –
2 | O=P(O)(O)CN(CCN(CCN(CP(=O)(O)O)CP(=O)(O)O)CP(=O)(O)O)CCN(CP(=O)(O)O)CP(=O)(O)O [TETHMPA, tri-ethylene tetra amine hexa(methylene phosphonic acid)] | 0 | – | – | –
3 | O=P(O)(O)CN(CCN(CP(=O)(O)O)CP(=O)(O)O)CCN(CP(=O)(O)O)CP(=O)(O)O [DETA, diethylene triamine penta(methylene phosphonic acid)] | 0 | 0 | 6-8 ppm | –
4 | O=P(O)(O)CN(CCO)CP(=O)(O)O [MEA, monoethanolamine bis(methylene phosphonic acid)] | 6 | – | – | 3
5 | BAEE | 0 | – | – | 5
